The values that follow come from PubChem BioAssay (NCI).

Structures are written as SMILES.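 Values below derive from 48-hour exposures of cells grown in 96-well plates, with endpoints linearly interpolated between the two concentrations bracketing the appropriate inhibition level. TGI marks complete inhibition of growth.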 Some results are limits rather than exact numbers.

Test systems include NCI-H226 lung; HT29 colon; UACC-257 melanoma; HOP-62 NSCLC; MDA-MB-435; CAKI-1 renal; M14 melanoma; RXF 393 renal; 786-0 renal; SF-539 CNS.
What all share (test): NCI tumour cell line growth inhibition, 48 h

Turning to `O=C(c1ccc([N+](=O)[O-])cc1)N1CCCC1`, the TGI with NCI-H226 lung, in the experiment on HT29 colon, in the experiment with UACC-257 melanoma, in the experiment with HOP-62 NSCLC, in the experiment with MDA-MB-435 and with CAKI-1 renal was over 100 µM throughout. Besides, the TGI in the experiment with M14 melanoma, with RXF 393 renal, in the experiment with 786-0 renal and in the experiment on SF-539 CNS was over 100 µM in each case.

`CN(C)/N=N/c1nc2c(c(=O)n(C)c(=O)n2C)n1CC1CO1` (stereo not given): the TGI in the experiment with NCI-H226 lung was found to be 38.3 µM; in the experiment with HT29 colon, 35.1 µM; with UACC-257 melanoma it was 43.9 µM; in the experiment on HOP-62 NSCLC, 34.4 µM; with MDA-MB-435 it was 35.6 µM; in the experiment with CAKI-1 renal it was 38.9 µM. Besides, the TGI in the experiment with M14 melanoma was found to be 32.6 µM; in the experiment with RXF 393 renal it was 15.8 µM; with 786-0 renal, 57.5 µM; with SF-539 CNS it was 22.5 µM.

For the compound `CC(=N/NC(=S)N(C)C)/C(=N\NC(=S)N(C)C)c1ccccc1`, the TGI was 3.13 µM with NCI-H226 lung; 9.46 µM with HT29 colon; 4.19 µM in the experiment on UACC-257 melanoma; 5.33 µM in the experiment on HOP-62 NSCLC; 3.56 µM with MDA-MB-435; 6.96 µM with CAKI-1 renal. In addition, the TGI with M14 melanoma came to 4.14 µM; in the experiment on RXF 393 renal, 2.95 µM; in the experiment on 786-0 renal, 4.04 µM; in the experiment on SF-539 CNS it was 25.8 µM.

As to `NC(=O)c1ccc[n+](C2=C([O-])c3ccccc3C(=O)/C2=N\S(=O)(=O)c2ccccc2)c1`, the TGI with NCI-H226 lung came to 28.9 µM; in the experiment on HT29 colon, 34 µM; with UACC-257 melanoma, 27.7 µM; in the experiment on HOP-62 NSCLC it was 33 µM; with MDA-MB-435, 17.2 µM; in the experiment with CAKI-1 renal, 37.1 µM. Besides, the TGI in the experiment on M14 melanoma was found to be 29.1 µM; in the experiment on RXF 393 renal it was 29.5 µM; in the experiment with 786-0 renal, 32.3 µM; in the experiment on SF-539 CNS, 32.2 µM.

Regarding `NC(=O)C1CCN(Cc2c(Cl)c(Cl)c(CN3CCC(C(N)=O)CC3)c(Cl)c2Cl)CC1`, the TGI with NCI-H226 lung was over 100 µM; with HT29 colon, over 100 µM; in the experiment with UACC-257 melanoma it was over 100 µM; with HOP-62 NSCLC it was 39.7 µM; with MDA-MB-435, over 100 µM; with CAKI-1 renal it was over 100 µM. Besides, the TGI in the experiment on M14 melanoma was over 100 µM; in the experiment with RXF 393 renal it was over 100 µM; in the experiment with 786-0 renal, over 100 µM; with SF-539 CNS, 70.7 µM.

For the compound `Cn1c(=O)cc(NNc2ccc(Cl)c(Cl)c2)[nH]c1=O`, the TGI is 55.9 µM in the experiment on NCI-H226 lung; 40.9 µM in the experiment with HT29 colon; 28.6 µM with UACC-257 melanoma; 31.3 µM in the experiment with HOP-62 NSCLC; 14.1 µM with MDA-MB-435; 27.3 µM with CAKI-1 renal. The TGI worked out at 20.3 µM with M14 melanoma, 38.8 µM in the experiment with RXF 393 renal, 25.9 µM with 786-0 renal and 39.7 µM in the experiment on SF-539 CNS.

Turning to `Oc1ccccc1/C=N/N1C(=S)N(C23CC4CC(CC(C4)C2)C3)C(=Nc2ccccc2)C1=Nc1ccccc1`, the TGI in the experiment on NCI-H226 lung, in the experiment with HT29 colon, in the experiment with UACC-257 melanoma, in the experiment on HOP-62 NSCLC, in the experiment on MDA-MB-435 and in the experiment with CAKI-1 renal was over 100 µM throughout. The TGI in the experiment with M14 melanoma, with RXF 393 renal, in the experiment on 786-0 renal and in the experiment with SF-539 CNS was over 100 µM in each case.

With `O=C1C=CC(=O)c2c(O)c(N3CCC[C@@H]3CO)c(Cl)c(O)c21`, the TGI in the experiment on NCI-H226 lung worked out at 3.16 µM; with HT29 colon, 4.9 µM; with UACC-257 melanoma, 3.28 µM; with HOP-62 NSCLC, 3.06 µM; in the experiment on MDA-MB-435 it was 3.78 µM; in the experiment on CAKI-1 renal it was 2.94 µM. Moreover, the TGI was 3.2 µM with M14 melanoma, 2.98 µM with RXF 393 renal, 3.17 µM with 786-0 renal and 3.42 µM with SF-539 CNS.

`C/C(=C\CSCC(N)C(=O)O)CC/C=C(\C)CNc1ccccc1` (stereo not given): the TGI with NCI-H226 lung, in the experiment on HT29 colon, in the experiment on UACC-257 melanoma, with HOP-62 NSCLC, in the experiment with MDA-MB-435 and with CAKI-1 renal was over 100 µM each time. Further, the TGI in the experiment on M14 melanoma, with RXF 393 renal, in the experiment with 786-0 renal and in the experiment with SF-539 CNS was over 100 µM each time.
